Measured values published in US20090155179A1, “KINETIC BIOMARKER FOR QUANTIFICATION OF LYMPHOPROLIFERATION, CLONAL EXPANSION, RECRUITMENT AND TRAFFICKING IN LYMPHOID TISSUES AND OF THE IN VIVO ACTIONS OF ANTIGENS AND MODULATING THEREON” (KINEMED, INC., priority 2005, published 2009).
“Also recorded” adds a separate entry of the source.

Key:
[1] = test system: PLN cells (draining popliteal lymph node lymphocytes); test: kinetic PLNA (popliteal lymph node assay) with continuous 2H2O labeling after footpad immunization; assay type: in vivo, Balb/c mice; conditions: for PLN cellularity under drug treatment: 5 μg KLH or PBS, Rap 2 mg/kg/d p.o.
Method: PLNA and heavy water labeling. The kinetic PLNA was performed as follows, except as noted in the Figure legends. In all experiments, groups of n=4 or 5 Balb/c mice were immunized subcutaneously on day 0 in the left hind footpad (toe to heel direction) with 20 μl PBS or drug vehicle (negative control group), or with 20 μl PBS containing 5-25 μg KLH (positive control group). Heavy water labeling was initiated on day 0 by intraperitoneal administration of 99.9% ^2H2O containing 0.9% w/v NaCl at 35 ml/kg body weight, and animals were maintained on 8% ^2H2O in drinking water for the remainder of the study. At day 7 post immunization, animals were bled into heparinized tubes by cardiac puncture under isoflurane anesthesia and sacrificed by cervical dislocation. The blood was centrifuged at 1500×g for 10 minutes, and heparinized plasma was stored at −20° C. for determination of body water ^2H enrichment; a second aliquot was frozen for serologic studies. Bone marrow was harvested from the right hindlimb femur by flushing the bone with 1 ml PBS using a 25 ga cannula and centrifuging the tissue and cell suspension at 450×g for 5 min.
Analysis of PLN cells. Draining PLN were dissected from the left hind limb, mechanically dispersed, using tweezers, into ice-cold RPMI 1640 containing 10% fetal bovine serum and antibiotics. The cell suspensions were thoroughly mixed and strained through a 35 μm cell strainer fitted to a 12×75 mm polystyrene tube (BD Biosciences, San Jose, Calif.) and centrifuged at 450×g at 4° C. for 5 min. Cells were suspended in 100 μl staining buffer (PBS containing 0.5% w/v bovine serum albumin, 2 mM EDTA, and 0.05% sodium azide), blocked by addition of 20 μl mg/ml murine IgG (Sigma) and 2 μl anti-CD16/CD32 mAb (Miltenyi Biotec, City/State) at 4° C. for 15 min., and stained with anti-CD3-FITC and anti-B220-PE/Cy5 (eBioscience, 1 μl each) for 15 min. The samples were diluted to 900 μl with staining buffer, mixed thoroughly with 100 μl Flow-Count fluorospheres, and analyzed on an Epics XL flow cytometer (Beckman Coulter, City/State) for determination of absolute lymph node cell counts and percentages and absolute counts of T cells, B cells, and non-T/B cells. Absolute cell counts per lymph node were determined as:
Analysis of ^2H incorporation into purine dR. DNA was extracted from samples of bone marrow, total PLN cells, or sorted T and B cells using DNEasy kits (Qiagen, Valencia, Calif.) according to the manufacturer's instructions. Aliquots (0.5 μg) were hydrolyzed to […] by overnight incubation at 37° C. with 0.5 units nuclease SI (Sigma) and 0.25 units potato acid phosphatase (Calbiochem) in 75 mM sodium acetate buffer, pH 4.8, containing 0.15 mM ZnSO4. […] The hydroxyl groups were acetylated using acetic anhydride and N-methylimidazole, and the resultant pentafluorobenzyl […] derivative was extracted into dichloromethane, dried under vacuum, and redissolved in 100 μl ethyl acetate. The derivative was analyzed by gas chromatography/mass spectrometry (GC/MS) as described supra, with selected ion monitoring at m/z 435 (for the parent mass isotopomer, M0) and 436 (M1). After integration of the M0 and M1 peak area using ChemStation software, the excess mole fraction of the M1 mass isotopomer (EM1) was calculated as: […]
Calculations and statistics. Fractional turnover of PLN cell populations (f, the fraction of total, T, or B cells that have divided during the labeling period, representing clonal expansion, FIG. 1) was calculated as:
f=EM1observed/EM1maximal,
where EM1maximal was represented, in most experiments, by bone marrow DNA from the same animal, or assumed to equal 0.14. Alternatively, for mice labeled for less than four days, EM1maximal was represented by 0.9× the EMI value predicted from the animal's body water ^2H enrichment (the factor of 0.9 represents dilution by salvage).

[2] = tolerability of maintained 2H2O body water enrichment; assay type: in vivo; conditions: 1-10% of total body water labeled, weeks or months, humans (>100 people) and experimental animals
From the text: Relatively high body water enrichments of ^2H2O (e.g., 1-10% of the total body water is labeled) may be achieved relatively inexpensively using the techniques of the invention. […] This finding in a large number of human subjects (>100 people) is contrary to previous concerns about vestibular toxicities at high doses of ^2H2O. One of the Applicants has discovered that as long as rapid changes in body water enrichment are prevented (e.g., by initial administration in small, divided doses), high body water enrichments of ^2H2O can be maintained with no toxicities. For example, the low expense of commercially available ^2H2O allows long-term maintenance of enrichments in the 1-5% range at relatively low expense.

[3] = test system: xenografted human tumor cells; test: f of xenografted human tumor cells in mice; assay type: in vivo; conditions: 10 mg/kg/d, i.p.; previously seen
PLN cells = test: kinetic PLNA with 2H2O labeling after KLH immunization in C57BI/6 mice; assay type: in vivo, C57BI/6 (B6) mice; conditions: B6 mice
[4] = day 7, Dex 0.3 mg/kg/d p.o., Tax 10 mg/kg/d i.p., OHU 500 mg/kg/d i.p.

Molecule: O=[N+]([O-])c1ccc(Cl)c([N+](=O)[O-])c1 [DNCB, 2,4-dinitrochlorobenzene]
- dose above which f reached a plateau ([1]; Balb/c, DNCB in PBS:DMSO, day 7): above 100 μg

Molecule: [2H]O[2H] [^2H2O]
- toxicity of maintained body water enrichment [2]: without any evidence of toxicity

Molecule: NC(=O)NO [hydroxyurea]
- PLN cellularity under drug treatment [1, 4]: modest and variable effects
- f of total PLN cells after KLH stimulation ([1]; 5 μg KLH, daily drug to day 7: Rap 2 mg/kg/d p.o., OHU 500 mg/kg/d i.p.): strongly inhibited
- f of total PLN cells at baseline ([1]; sham-immunized (PBS), daily drug to day 7: Rap 2 mg/kg/d p.o., OHU 500 mg/kg/d i.p.): strongly inhibited

Molecule: CC(=O)O[C@H]1C(=O)[C@@]2(C)[C@H]([C@H](OC(=O)c3ccccc3)[C@]3(O)C[C@H](OC(=O)[C@H](O)[C@@H](NC(=O)c4ccccc4)c4ccccc4)C(C)=C1C3(C)C)[C@]1(OC(C)=O)CO[C@@H]1C[C@@H]2O [paclitaxel]
- PLN cellularity under drug treatment [1, 4]: reduced
- f (clonal expansion) of PLN cells under drug treatment ([1]; stimulation not specified, Tax 10 mg/kg/d i.p., Dex 0.3 mg/kg/d p.o., day 7): did not affect f
- f of xenografted human tumor cells in mice [3]: strong inhibition

Molecule: keyhole limpet hemocyanin [KLH]
- proliferation response to low doses of KLH ([1]; Balb/c, 0.2-2 μg KLH): increase in f without a change in PLN cellularity
- proliferation response to higher doses of KLH ([1]; Balb/c, 5-25 μg KLH or with incomplete Freund's adjuvant): f reached a plateau
- increase of PLN cellularity ([1]; Balb/c, KLH doses that increased cellularity): 2- to 3 fold
- antigen dose at which cellularity was maximal ([1]; Balb/c, KLH in PBS, day 7): around 25 μg
- antigen dose at which f was maximally increased ([1]; Balb/c, KLH, as little as): 600 ng
- CD4+ T cell f ([1]; Balb/c, KLH-immunized, day 7, other attempts, vs. 7.5%±1.3% without KLH, p=0.017): 11.3%±2.1
- proliferating cells as share of cells in the PLN ([1]; Balb/c, any KLH dose, day 7): ≤ 20%
- f in total PLN cells after immunization ([1]; Balb/c, footpad immunization, day 7): elevated to a dose-independent plateau; also recorded: significant; also recorded: increased f
- f in PLN B cells after immunization ([1]; Balb/c, sorted B cells, day 7): pronounced increase; also recorded: Significant KLH effect; also recorded: significantly increased
- f in CD4+ T cells after immunization ([1]; Balb/c, sorted CD4+ T cells, day 7): smaller increase
- f in CD8+ T cells after immunization ([1]; Balb/c, sorted CD8+ T cells, day 7): not in CD8^+ T cells
- f in total T cells after immunization ([1]; Balb/c, sorted T cells, day 7): smaller increase; also recorded: Significant KLH effect
- f in sorted B cells and total T cells (PLN cells; 200 μg KLH, day 7): Neither B cells nor T cells showed a substantial increase
- f in PLN cells after KLH immunization, day 7 (PLN cells; 2-200 μg KLH, day 7): no significant increase; also recorded: lower
- cellularity in PLN (PLN cells; 7 days after KLH immunization): dose-dependent
- f in PLN cells, time course (PLN cells; KLH, day 4): transient increase
